Patent publication US20150366932A1, “METHODS FOR PRODUCING DIKETOPIPERAZINES AND COMPOSITIONS CONTAINING DIKETOPIPERAZINES” (AMPIO PHARMACEUTICALS, INC., priority 2013, published 2015)
“Also recorded” adds a separate entry of the source. One block for each compound: values may come before it.

Legend:
[1] = system: activated PBMC and T-lymphocytes; settings: activated PBMC and T-lymphocytes in vitro; cited from earlier work
[2] = biological target: neurokinin-1 receptor (Homo sapiens, UniProt P25103); settings: cited from earlier work
neurokinin-1 receptor, sequence (P25103 whole entry): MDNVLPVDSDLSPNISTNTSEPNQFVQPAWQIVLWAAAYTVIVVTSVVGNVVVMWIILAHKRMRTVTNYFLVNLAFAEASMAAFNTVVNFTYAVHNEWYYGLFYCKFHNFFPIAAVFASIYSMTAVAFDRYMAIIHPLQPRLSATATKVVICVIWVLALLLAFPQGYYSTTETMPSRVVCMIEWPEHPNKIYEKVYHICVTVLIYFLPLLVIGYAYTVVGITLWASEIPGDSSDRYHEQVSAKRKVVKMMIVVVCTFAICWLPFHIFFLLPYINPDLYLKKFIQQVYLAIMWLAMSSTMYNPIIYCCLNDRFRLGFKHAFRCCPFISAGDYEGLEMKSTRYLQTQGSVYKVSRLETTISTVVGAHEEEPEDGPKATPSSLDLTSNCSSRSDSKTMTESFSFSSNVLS

[3] = biological target: T1, dipeptidyl peptidase IV (DPP-IV) (Homo sapiens, UniProt P27487); assay: DPP-IV activity assay with chromogenic substrate Gly-Pro-pNA in HSA solutions; type: biochemical; settings: 1 mM diprotin A pre-incubated 15 minutes at 37° C.; Gly-Pro-pNA 1 mM; 24 hour incubation at 37° C.
T1 construct: the Cohn manufacturing process which isolates other plasma components such as DPP-IV; tissue CSL Behring LLC; Grifols Biologicals Inc; Octapharma USA Inc. (5% HSA products that contain the enzyme); host or cells: human plasma (Cohn fractionation; commercial 5% HSA solution)
T1 sequence (P27487 39-766 limits assumed): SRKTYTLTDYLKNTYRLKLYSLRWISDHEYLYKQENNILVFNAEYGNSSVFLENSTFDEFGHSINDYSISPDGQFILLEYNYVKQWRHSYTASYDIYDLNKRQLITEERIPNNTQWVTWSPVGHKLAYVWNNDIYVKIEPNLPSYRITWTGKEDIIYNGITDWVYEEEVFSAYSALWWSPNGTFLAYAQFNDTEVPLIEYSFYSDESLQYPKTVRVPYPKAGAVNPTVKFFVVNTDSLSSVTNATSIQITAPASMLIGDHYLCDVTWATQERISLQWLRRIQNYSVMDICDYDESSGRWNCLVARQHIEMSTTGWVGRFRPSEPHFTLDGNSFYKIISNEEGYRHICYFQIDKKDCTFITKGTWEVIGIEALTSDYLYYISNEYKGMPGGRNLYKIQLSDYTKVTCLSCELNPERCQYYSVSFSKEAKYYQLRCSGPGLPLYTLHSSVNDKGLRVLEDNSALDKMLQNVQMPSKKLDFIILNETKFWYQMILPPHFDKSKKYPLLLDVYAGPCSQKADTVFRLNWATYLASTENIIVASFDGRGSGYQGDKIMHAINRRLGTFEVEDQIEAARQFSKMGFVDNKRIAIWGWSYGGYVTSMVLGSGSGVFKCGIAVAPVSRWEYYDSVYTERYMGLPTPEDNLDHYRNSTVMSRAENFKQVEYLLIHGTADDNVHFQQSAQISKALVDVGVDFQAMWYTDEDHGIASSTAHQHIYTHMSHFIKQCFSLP
Description: DPP-IV activity was assayed by using a chromogenic substrate, Gly-Pro-pNA, as described in E. Nemoto, S. Sugawara, H. Takada, et al., Increase of CD26/dipeptidyl peptidase IV expression on human gingival fibroblasts upon stimulation with cytokines and bacterial components. […] All reactions were carried out in DPP-IV assay buffer (pH 7.6) consisting of 0.1M HEPES, 0.12M NaCl, 5 mM KCl, 8 mM glucose, and 10 mg/ml bovine serum albumin (BSA). 5% commercial HSA, recombinant HSA, or buffer blank (0.9% NaCl) were combined with 1 mM Gly-Pro-pNA (DPP-IV substrate) in assay buffer or assay buffer only (−CON). Incubations were performed at 37° C. or 60° C. for 2-24 hours. For DPP-IV inhibition studies, 1 mM diprotin A in assay buffer was pre-incubated with the HSA solutions for 15 minutes at 37° C. prior to DPP-IV substrate addition. All incubations were read at 405 nm (SpectraMax M2 spectrophotometer, Molecular Devices LLC, Sunnyvale, Calif., USA). Each reading at 405 nm was corrected by subtracting the A405 for the DPP-IV substrate-containing incubation from the corresponding A405 for the −CON incubation for each HSA solution tested.
The amount of pNA produced in μM was calculated based on the pNA molar extinction coefficient in HEPES buffer (see R. Lottenberg, C. M. Jackson, Solution composition dependent variation in extinction coefficients for p-nitroaniline. Biochim Biophys Acta 742 (1983) 558-64). […] Groups were compared using a two tailed students' T-test with a significance level at p<0.05. All data is reported as mean±SD.
Dipeptidyl peptidase IV (DPP-IV) activity was assessed in commercial preparations of human serum albumin (HSA). […] The resulting liberation of a chromogen, pNA, was measured spectrophotometrically at 405 nm.

[4] = biological target: T2, DPP-IV (Homo sapiens, UniProt P27487); assay: DA-DKP formation in 5% commercial HSA heated at 60° C., <5 kDa fraction by LCMS; type: biochemical
T2 construct: the Cohn manufacturing process which isolates other plasma components such as DPP-IV; tissue CSL Behring LLC; Grifols Biologicals Inc; Octapharma USA Inc. (5% HSA products that contain the enzyme); host or cells: human plasma (Cohn fractionation; commercial 5% HSA solution)
T2 sequence (P27487 39-766 limits assumed): as above
Description: For the analysis of DA-DKP formation, an aliquot was added to a microcentrifugal filter (Vivaspin 2, MWCO 5,000, Sartorius Stedim Biotech, Goettingen, Germany). Filters were centrifuged at 3,500 rpm for 30 minutes at room temperature. The <5 kDa fraction was collected and transferred to a separate, storage tube for LCMS analysis.
Each <5 kDa fraction & DA-DKP synthetic standard (20-2000 ng/mL) were spiked with 0.01 mM L-Tryptophan-d5 (indole-d5) which was used as an internal standard. 50 μL was injected into a strong anion exchange column (Spherisorb, S5 SAX 250 mm×4.0 mm, Waters, Milford, Mass., USA) connected to high performance liquid chromatography (HPLC, Waters 2795 Separations Module, Milford, Mass., USA) coupled to a mass spectrometer (LCT-TOF, Micromass, UK). […]
The output of the HPLC was split 1:20 (v/v) and injected into the mass spectrometer using negative electrospray ionization (−ESI) with a scan range of 80 to 1000 m/z, cone voltage of 30 eV, source temperature of 100° C., and gas temperature of 300° C. DA-DKP was measured by monitoring [M]=185, which corresponds to DA-DKP minus a single proton (—H+). The straight chain of DA-DKP, Asp-Ala, can also be analyzed with this method by monitoring [M]=203.
The formation of the DKP, DA-DKP, was measured in a commercial HSA solution heated at 60° C. in the presence or absence of a known DPP-IV inhibitor (diprotin A). […]

Compound: CC1NC(=O)C(CC(=O)O)NC1=O (centres unmarked) [DA-DKP, 3-methyl-2,5-diketopiperazine-6-acetic acid]
Immunosuppressive effects [1]: immunosuppressive effects

Compound: CC(=O)N[C@@H](Cc1c[nH]c2ccccc12)C(=O)O [NAT, N-acetyl-tryptophan]
Antagonism of the neurokinin-1 receptor [2]: well-known antagonist

Decrease of amount of DA-DKP produced with inhibitor ([4]; 24 hour period, commercial HSA): ~3 fold | Increase in DA-DKP production in the presence of the DPP-IV inhibitor ([4]; 24 hours, 5% commercial HSA plus diprotin A): 10%
Compound: Ile-Pro-Ile [diprotin A]
DPP-IV activity in commercial HSA in the presence of DPP-IV inhibitor [3]: completely suppressed; also recorded: complete suppression of DPP-IV activity; also recorded: abolished
